Data as given in patent publication USRE42890E1, “Furazanobenzimidazoles” (Basilea Pharmaceutica AG, priority 2003, dated 2011).

Legend:
Jily = assay: MTS proliferation assay, Jily; type: cell-based; details: 72 h incubation, read-out: MTS proliferation assay IC 50 Jily
Procedure, shortened: (§1)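 Antiproliferative read-out by MTS (3 h, A492) after 72 h compound exposure at final 0.3–10 μM (four concentrations). Cells were plated 24 h earlier in RPMI-1640 containing 5% or 10% FCS, cultured at 37 °C with 7.5% CO2.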

Jurkat = assay: MTS proliferation assay, Jurkat; type: cell-based, human; details: 72 h incubation, read-out: MTS proliferation assay IC 50 Jurkat
Procedure, shortened: (§2)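 Absorbance at 492 nm after 3 h with MTS reagent gave proliferation. This followed 72 h compound exposure (final 0.3, 1, 3, 10 μM) at 37 °C and 7.5% CO2. Cells had been plated 24 h earlier in complete RPMI-1640 with 5% or 10% FCS.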

[1] = tested on: adherent cells or suspension cells; assay: Hoechst 33342 nuclear staining (fraction of apoptotic nuclei); type: cell-based; design: key: 0 relating to no activity; 1 relating to weak activity comprising less than 70% of the cells; score 2 relating to strong activity comprising more than 70% of the cells
HeLa = assay: MTS proliferation assay, HeLa; type: cell-based, human; details: 72 h incubation, read-out: MTS proliferation assay IC 50 HeLa
Procedure, shortened: as §2

HT1080 = assay: MTS proliferation assay, HT1080; type: cell-based, human; details: HT1080, 72 h incubation; read-out: MTS proliferation assay IC 50 HT1080
Procedure, shortened: as §2

MRC5 = assay: MTS proliferation assay, MRC5; type: cell-based; details: MRC5, 72 h incubation; read-out: MTS proliferation assay IC 50 MRC5
Procedure, shortened: as §1

| Compound | IC50 (Jurkat) [nM] | IC50 (Jily) [nM] | Hoechst 33342 nuclear staining score ([1]; H460, conc 0.01 μm) | Hoechst 33342 nuclear staining score ([1]; H460, conc 0.1 μm) | Hoechst 33342 nuclear staining score ([1]; H460, conc 1 μm) | Hoechst 33342 nuclear staining score ([1]; HeLa, conc 0.01 μm) | Hoechst 33342 nuclear staining score ([1]; HeLa, conc 0.1 μm) | Hoechst 33342 nuclear staining score ([1]; HeLa, conc 1 μm) | Hoechst 33342 nuclear staining score ([1]; Jily, conc 0.01 μm) | Hoechst 33342 nuclear staining score ([1]; Jily, conc 0.1 μm) | Hoechst 33342 nuclear staining score ([1]; Jily, conc 1 μm) | Hoechst 33342 nuclear staining score ([1]; Jurkat, conc 0.01 μm) | Hoechst 33342 nuclear staining score ([1]; Jurkat, conc 0.1 μm) | Hoechst 33342 nuclear staining score ([1]; Jurkat, conc 1 μm) | Hoechst 33342 nuclear staining score ([1]; MRC5, conc 0.01 μm) | Hoechst 33342 nuclear staining score ([1]; MRC5, conc 0.1 μm) | Hoechst 33342 nuclear staining score ([1]; MRC5, conc 1 μm) | Hoechst 33342 nuclear staining score ([1]; PBLs, conc 0.01 μm) | Hoechst 33342 nuclear staining score ([1]; PBLs, conc 0.1 μm) | Hoechst 33342 nuclear staining score ([1]; PBLs, conc 1 μm) | further results |
| --- | --- | --- | --- | --- | --- | --- | --- | --- | --- | --- | --- | --- | --- | --- | --- | --- | --- | --- | --- | --- | --- |
| Nc1nonc1-c1nc2ccccc2n1CC(=O)c1ccc(F)cc1 [Example 67] | 100 to 1000 | 10 to 100 | 0 | 0 | 2 (score 2 relating to strong activity comprising more than 70% of the cells) | 0 | 0 | 2 (score 2 relating to strong activity comprising more than 70% of the cells) | 0 | 2 (score 2 relating to strong activity comprising more than 70% of the cells) | 2 (score 2 relating to strong activity comprising more than 70% of the cells) | 0 | 2 (score 2 relating to strong activity comprising more than 70% of the cells) | 2 (score 2 relating to strong activity comprising more than 70% of the cells) | 0 | 0 | 1 (1 relating to weak activity comprising less than 70% of the cells) | 0 | 0 | 0 | IC50 (HeLa): 100 to 1000 nM; IC50 (HT1080): 100 to 1000 nM; IC50 (MRC5): 100 to 1000 nM |
| Nc1nonc1-c1nc2ccccc2n1CC(=O)c1ccc(Cl)nc1 [Example 70] | < 10 | < 10 | 1 (1 relating to weak activity comprising less than 70% of the cells) | 2 (score 2 relating to strong activity comprising more than 70% of the cells) | 2 (score 2 relating to strong activity comprising more than 70% of the cells) | 0 | 2 (score 2 relating to strong activity comprising more than 70% of the cells) | 2 (score 2 relating to strong activity comprising more than 70% of the cells) | 2 (score 2 relating to strong activity comprising more than 70% of the cells) | 2 (score 2 relating to strong activity comprising more than 70% of the cells) | 2 (score 2 relating to strong activity comprising more than 70% of the cells) | 2 (score 2 relating to strong activity comprising more than 70% of the cells) | 2 (score 2 relating to strong activity comprising more than 70% of the cells) | 2 (score 2 relating to strong activity comprising more than 70% of the cells) | 1 (1 relating to weak activity comprising less than 70% of the cells) | 2 (score 2 relating to strong activity comprising more than 70% of the cells) | 2 (score 2 relating to strong activity comprising more than 70% of the cells) | 0 | 0 | 0 | IC50 (HeLa): < 10 nM; IC50 (HT1080): < 10 nM; IC50 (MRC5): < 10 nM |
| Nc1nonc1-c1nc2ccccc2n1CC(=O)c1cccs1 [Example 72] | 100 to 1000 | 100 to 1000 | 0 | 0 | 2 (score 2 relating to strong activity comprising more than 70% of the cells) | 0 | 0 | 2 (score 2 relating to strong activity comprising more than 70% of the cells) | 0 | 0 | 2 (score 2 relating to strong activity comprising more than 70% of the cells) | 0 | 1 (1 relating to weak activity comprising less than 70% of the cells) | 2 (score 2 relating to strong activity comprising more than 70% of the cells) | 0 | 0 | 0 | 0 | 0 | 0 | IC50 (HeLa): 100 to 1000 nM; IC50 (HT1080): 100 to 1000 nM; IC50 (MRC5): 100 to 1000 nM |
| COc1cc(C(=O)Cn2c(-c3nonc3N)nc3ccccc32)ccc1OCc1ccccc1 [Example 73] | 100 to 1000 | 100 to 1000 | 0 | 0 | 2 (score 2 relating to strong activity comprising more than 70% of the cells) | 0 | 0 | 1 (1 relating to weak activity comprising less than 70% of the cells) | 0 | 0 | 1 (1 relating to weak activity comprising less than 70% of the cells) | 0 | 0 | 2 (score 2 relating to strong activity comprising more than 70% of the cells) | 0 | 0 | 1 (1 relating to weak activity comprising less than 70% of the cells) | 0 | 0 | 0 | IC50 (HeLa): 100 to 1000 nM; IC50 (HT1080): 100 to 1000 nM; IC50 (MRC5): 100 to 1000 nM |

The next lines start with results.

| IC50 (Jurkat) [nM] | Compound | IC50 (Jily) [nM] | Hoechst 33342 nuclear staining score ([1]; H460, conc 0.01 μm) | Hoechst 33342 nuclear staining score ([1]; H460, conc 0.1 μm) | Hoechst 33342 nuclear staining score ([1]; H460, conc 1 μm) | Hoechst 33342 nuclear staining score ([1]; HeLa, conc 0.01 μm) | Hoechst 33342 nuclear staining score ([1]; HeLa, conc 0.1 μm) | Hoechst 33342 nuclear staining score ([1]; HeLa, conc 1 μm) | Hoechst 33342 nuclear staining score ([1]; Jily, conc 0.01 μm) | Hoechst 33342 nuclear staining score ([1]; Jily, conc 0.1 μm) | Hoechst 33342 nuclear staining score ([1]; Jily, conc 1 μm) | Hoechst 33342 nuclear staining score ([1]; Jurkat, conc 0.01 μm) | Hoechst 33342 nuclear staining score ([1]; Jurkat, conc 0.1 μm) | Hoechst 33342 nuclear staining score ([1]; Jurkat, conc 1 μm) | Hoechst 33342 nuclear staining score ([1]; MRC5, conc 0.01 μm) | Hoechst 33342 nuclear staining score ([1]; MRC5, conc 0.1 μm) | Hoechst 33342 nuclear staining score ([1]; MRC5, conc 1 μm) | Hoechst 33342 nuclear staining score ([1]; PBLs, conc 0.01 μm) | Hoechst 33342 nuclear staining score ([1]; PBLs, conc 0.1 μm) | Hoechst 33342 nuclear staining score ([1]; PBLs, conc 1 μm) | further results |
| --- | --- | --- | --- | --- | --- | --- | --- | --- | --- | --- | --- | --- | --- | --- | --- | --- | --- | --- | --- | --- | --- |
| 10 to 100 | COc1ccc(C(=O)Cn2c(-c3nonc3N)nc3ccccc32)cc1[N+](=O)[O-] [Example 68] | 10 to 100 | 0 | 0 | 2 (score 2 relating to strong activity comprising more than 70% of the cells) | 0 | 0 | 2 (score 2 relating to strong activity comprising more than 70% of the cells) | 0 | 1 (1 relating to weak activity comprising less than 70% of the cells) | 1 (1 relating to weak activity comprising less than 70% of the cells) | 0 | 2 (score 2 relating to strong activity comprising more than 70% of the cells) | 2 (score 2 relating to strong activity comprising more than 70% of the cells) | 0 | 0 | 1 (1 relating to weak activity comprising less than 70% of the cells) | 0 | 0 | 0 | IC50 (HeLa): 100 to 1000 nM; IC50 (HT1080): 100 to 1000 nM; IC50 (MRC5): 100 to 1000 nM |
| 10 to 100 | COc1ccc(C(=O)Cn2c(-c3nonc3NCCC#N)nc3ccccc32)cc1N [Example 69] | 100 to 1000 | 0 | 0 | 2 (score 2 relating to strong activity comprising more than 70% of the cells) | 0 | 0 | 2 (score 2 relating to strong activity comprising more than 70% of the cells) | 0 | 1 (1 relating to weak activity comprising less than 70% of the cells) | 2 (score 2 relating to strong activity comprising more than 70% of the cells) | 0 | 1 (1 relating to weak activity comprising less than 70% of the cells) | 2 (score 2 relating to strong activity comprising more than 70% of the cells) | 0 | 0 | 1 (1 relating to weak activity comprising less than 70% of the cells) | 0 | 0 | 0 | IC50 (HeLa): 100 to 1000 nM; IC50 (HT1080): 100 to 1000 nM; IC50 (MRC5): 100 to 1000 nM |
